The test system of the assay is mineralocorticoid receptor. Nature of the assay: MMTV-luciferase reporter assay of mineralocorticoid receptor activity in CV-1 cells. The class given is cell-based. As to conditions: 10 μg/ml compound, after 2 hours dexamethasone (1 nM), cultivated 24 hours, FIG. 2. On the procedure:
RNA was separated from a CV-1 cell and PCR was performed using reverse transcriptase, so gene expressions of a glucocorticoid receptor (GR) and a mineralocorticoid receptor (MR) were confirmed, and the results are shown in FIG. 1.
The CV-1 cell was cultivated in a 24-well flat incubator. After 24 hours, the incubating medium was replaced with a 10% charcoal dextran-treated FBS-DMEM, and then after 4 hours, a mixing DNA of a MMTV-luciferase reporter plasmid and an internal Control Group of a pRL-SV-40 plasmid was transfected using TRANSFAST™ reagent (Promega). After 24 hours, it was treated with 10 μg/ml of the compound (INDOFINE Chemical Company, Inc.) represented by Chemical Formula 1-1, and after 2 hours, was treated with dexamethasone (1 nM), and then cultivated for 24 hours. The luciferase activity in the cell lysate was measured using a Dual-Luciferase Reporter Assay System (Promega), and the transfection efficiency was normalized by revising Renilla luciferase activity to measure a relative luciferase activity, and the results are shown in FIG. 2.

For the compound `O=c1c(-c2ccc(O)c(O)c2)coc2cc(O)ccc12` [Chemical Formula 1-1], the “relative luciferase activity (mineralocorticoid receptor activity induced by dexamethasone)” value is “deteriorated activity of the mineralocorticoid receptor”.
